Laboratory results taken from US20250170093A1, “ENDOPLASMIC RETICULUM PROTEIN HYOU1-BINDING COMPOUND FOR INHIBITING ENDOPLASMIC RETICULUM-MITOCHONDRIAL INTERACTION AND USES THEREOF” (UIF (University Industry Foundation), Yonsei Univeristy, priority 2023, published 2025).

Key:
HUVECs [1] = test: Mitochondrial calcium assay (Rhod-2) in HUVECs; assay type: cell-based, human; settings: pretreated with xestospongin C, then treated with oxLDL
Description: To measure calcium content in mitochondria or cytosol, HUVECs were cultured overnight at a density of 1.5×10^4 cells/well in a chamber slide (8-well) and incubated with Rhod-2/AM (2 μM) (Invitrogen, R1244) or Fluo-4/AM (1 μM) (Invitrogen, F14201), respectively, for 30 minutes at room temperature. The cells were then incubated in a calcium-free Krebs-Ringer-HEPES buffer (pH 7.4) additionally for 30 minutes for de-esterification of the dye. Images were captured in real time using an LSM980 confocal microscope (Zeiss, Oberkochen, Germany).
In addition, it was investigated whether intracellular calcium was released from the ER and imported into the mitochondria in response to oxLDL. Specifically, it was confirmed that, when the HUVECs were treated with oxLDL along with the Rhod-2 dye, which is a marker of mitochondrial calcium, mitochondrial calcium level was increased. In contrast, when HUVECs were pretreated with xestospongin C, which is an IP3R antagonist, and then treated with oxLDL, there was no increase in the mitochondrial calcium level (FIG. 1D). This means that the oxLDL-induced increase in mitochondrial calcium is derived from the endoplasmic reticulum (ER).
Furthermore, in order to investigate whether change in the physical coupling between the ER and mitochondria affects communications between cell organelles, Ca^2+ transport from the ER to mitochondria was examined. […]

HYOU1 = biological target: T1, HYOU1 (Homo sapiens, UniProt Q9Y4L1); test: DARTS-western analysis in HUVEC lysate; assay type: binding; settings: dose-dependent, read-out: EC50 of resistance to degradation by Pronase
T1 construct: endogenous in cells; host or cells: HUVEC
T1 sequence (Q9Y4L1 33-999): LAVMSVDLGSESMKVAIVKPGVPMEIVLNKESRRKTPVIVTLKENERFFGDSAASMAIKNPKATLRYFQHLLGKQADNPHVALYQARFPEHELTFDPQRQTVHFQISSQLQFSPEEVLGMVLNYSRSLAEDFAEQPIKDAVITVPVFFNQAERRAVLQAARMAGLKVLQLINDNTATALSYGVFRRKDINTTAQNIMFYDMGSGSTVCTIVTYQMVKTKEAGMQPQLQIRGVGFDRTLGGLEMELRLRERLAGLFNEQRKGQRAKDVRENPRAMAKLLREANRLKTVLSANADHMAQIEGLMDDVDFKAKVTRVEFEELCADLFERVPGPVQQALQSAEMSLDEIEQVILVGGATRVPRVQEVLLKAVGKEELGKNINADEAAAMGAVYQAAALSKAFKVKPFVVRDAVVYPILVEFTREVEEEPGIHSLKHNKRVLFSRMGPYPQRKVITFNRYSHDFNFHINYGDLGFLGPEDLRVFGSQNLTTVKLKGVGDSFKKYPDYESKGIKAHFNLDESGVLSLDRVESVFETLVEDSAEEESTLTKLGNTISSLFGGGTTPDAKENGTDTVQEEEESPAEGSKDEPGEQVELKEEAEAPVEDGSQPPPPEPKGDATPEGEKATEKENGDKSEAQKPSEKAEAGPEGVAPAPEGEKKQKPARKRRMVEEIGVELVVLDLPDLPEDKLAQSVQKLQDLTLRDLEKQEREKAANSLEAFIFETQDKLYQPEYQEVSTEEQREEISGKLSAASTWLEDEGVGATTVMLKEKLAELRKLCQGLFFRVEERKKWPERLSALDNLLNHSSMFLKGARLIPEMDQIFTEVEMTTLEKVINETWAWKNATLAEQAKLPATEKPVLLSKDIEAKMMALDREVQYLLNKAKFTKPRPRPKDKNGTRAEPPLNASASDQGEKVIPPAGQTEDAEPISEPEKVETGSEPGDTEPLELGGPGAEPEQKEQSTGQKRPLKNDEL
Description: HepG2 or HUVECs (1×10^7 cells) were lysed by homogenization in PBS buffer containing a protease/phosphatase inhibitor cocktail (½ tablet, 25 mL; Pierce), and the concentration of total proteins was determined by BCA assay. All steps were performed on ice to avoid premature protein degradation. The cell lysate (final protein concentration: 1 mg/mL, 100 μL) was aliquoted into a 1.5-mL tube and incubated with 0.01 to 10 μM CTS (in 1 μL DMSO) for 3 hours at 4° C. with gentle stirring. Pronase (non-specific protease) was then added (final concentration: 1 μg/mL) and reaction was performed for 10 minutes. After adding a 6×SDS buffer, the Pronase reaction was stopped by heating for 7 minutes.
DARTS-western analysis was used to validate HYOU1 as a target protein of CTS in the lysate of HUVECs. […] In addition, […] to degradation by Pronase (protease) in a dose-dependent manner, with an EC50 value calculated to be about 1 μM (FIG. 5B).

[2] = test system: ApoE−/− mice fed a high-cholesterol diet; test: Atherosclerosis-induced animal model (ApoE-/- mice fed a high-cholesterol diet); assay type: in vivo, mouse; settings: 20 mg/kg intraperitoneally every 2 days for 8 weeks
Description: Mouse experiments were performed in accordance with the ethical guidelines approved by the Institutional Animal Care and Use Committee of Yonsei University (IACUC-A-202208-1519-01). ApoE−/− mice were provided by Dr. Goo Taeg Oh (Ewha Womans University, Korea) and were housed in a pathogen-free system with a 12-hour light-dark cycle with free access to water and food. The mice were fed a high-cholesterol diet from 6 weeks after birth until the end of the experiment. At the end of the experiment, the mice were anesthetized with Avertin (2,2,2-tribromoethanol) and perfused with PBS through the left ventricle.
The outer membrane fat of the aorta isolated from the sacrificed animals was removed, dissected longitudinally, and fixed on a white silicone plate. After overnight fixation with 4% PFA, aortas were stained overnight with Oil Red O and washed with PBS. The heart and liver were then harvested and fixed overnight in 4% PFA and then placed in a 30% sucrose solution. After preparing tissues and preserving through cryopreservation (OCT) or paraffin embedding, sections were prepared for histologic analysis. For analysis of atherosclerotic lesions, the bottom of the heart, including the proximal aorta, was embedded in OCT medium, stained using the Oil Red O stain, and then quantified using the Image J software. […]

HUVECs [3] = test: Transmission electron microscopy of ER and mitochondria in HUVECs; assay type: cell-based, human; settings: CTS 5 μM; control group 61%
From the text: First, HUVECs were imaged by transmission electron microscopy (TEM) to visualize the ER and mitochondria, and the ER-mitochondrial distance was observed. […] Increased contact between the ER and mitochondria can lead to cellular stress and dysfunction. CTS can help restore cellular homeostasis and prevent adverse effects associated with increased ER-mitochondrial interactions.

p62, LC3B-II and α-SMA = test: Western blot of autophagy and smooth muscle cell proliferation markers in PAH cell model; assay type: cell-based, human; settings: TGF-β-stimulated PASMCs, vs control group
Description: Human pulmonary artery smooth muscle cells (PASMCs; 4-8 passages) were cultured in an SmGM2 basal medium (Lonza, CC-3181) containing 5% FBS, supplements (Lonza, CC-4149) and 1% antibiotics.
The cells were cultured in a chamber-type cell culture slide. When they reached 70% confluence, the medium was replaced with a medium containing 0.5% FBS and the cells were incubated for 4 hours to inhibit cell proliferation. The cells were then treated with DMSO and CTS (5 μM) while simultaneously stimulating with TGF-β (5 ng/ml) for 24 hours. The level of p62, LC3 and α-SMA was confirmed by western blot.

For `C1CCC[C@H]2CCCN3CC[C@@H](CCCCCC[C@@H]4CCCN5CC[C@@H](CC1)O[C@@H]45)O[C@@H]23` [xestospongin C], the “mitochondrial calcium level (Rhod-2)” value (HUVECs [1]) was “no increase”.
With `C[C@H]1COC2=C1C(=O)C(=O)c1c2ccc2c1CCCC2(C)C` [CTS, Cryptotanshinone] the EC50 (HYOU1) was roughly 1000 nM, the body weight [2] was “did not affect” and the “number of dots closer than 40 nm (ER-mitochondrial distance)” value (HUVECs [3]) was 37%. The “decrease of expression of autophagy and smooth muscle cell proliferation markers” value (p62, LC3B-II and α-SMA) was “approximately 40%”.
